According to article PMC9145754, “Novel Soloxolone Amides as Potent Anti-Glioblastoma Candidates: Design, Synthesis, In Silico Analysis and Biological Activities In Vitro and In Vivo” (Pharmaceuticals, 2022):

What was measured:
U118 cells = assay: Mitochondrial membrane potential, JC-1; assay type: cell-based, human; details: for percentage of U118 cells with collapsed ΔψM: 12 at 4 µM, JC-1, control 4.7%
Description: It is known that structural analogs of compound 12, such as SM, bardoxolone methyl and CDDO-Im, trigger the mitochondrial pathway of apoptosis in tumor cells, leading to significant dissipation of mitochondrial membrane potential (ΔψM). To evaluate the ability of 12 to affect ΔψM in glioblastoma cells, U118 cells were incubated with 12 (4 µM) for 6 and 24 h and stained with JC-1, a fluorescent probe accumulated either within highly polarized mitochondria emitting red fluorescence (JC-1 aggregates) or in cytoplasm, in the case of low ΔψM (JC-1 monomers, green fluorescence).
[…] were cultured in 6-well plates for 24 h, incubated overnight under standard conditions and treated with 12 at 4 μM for 6 and 24 h. Thereafter, the cells were harvested, resuspended at 10^6 cell/mL in JC-1-containing PBS (5 µg/mL) and incubated under standard conditions for 30 min followed by the washing of the cells with PBS and flow cytometry analysis. In total, 10,000 events were acquired for each sample.

U87 cells = assay: Cytotoxicity of 12 with N-acetyl-L-cysteine (MTT); assay type: cell-based; details: U87, 12 at 4 µM with NAC, 24 h
Description: To check the ability of 12 to influence ROS production, U87 cells treated with 12 (4 µM) for 24 h were stained with dichlorodihydrofluorescein diacetate (DCFDA) and analyzed by flow cytometry. […] Since ROS play an important role in the regulation of cell death, we further examined whether ROS production mediated the cytotoxicity of 12 with respect to glioblastoma cells.
In order to understand whether ROS play a crucial role in compound 12-induced cell death, U87 cells were plated in quadruplicate in 96-well plates at a density of 1 × 10^4 cells/well and incubated in the presence of 12 at 4 µM and N-Acetyl-L-cysteine (NAC) at […] for 24 h under standard conditions. Then, cell viability was measured using an MTT test.

caspase-3 and -7 = assay: Caspase-3/-7 activation (CellEvent reagent, flow cytometry); assay type: cell-based, human; details: U87 cells
Description: To double check the pro-apoptotic activity of 12, its effect on the activation of executioner caspase-3 and -7, key markers of apoptosis, was evaluated in glioblastoma U87 cells.
U87 cells were plated at a density of 2.8 × 10^5 cells/well in 6-well plates and treated with 12 at 2 and 4 μM for 6 and 24 h. Then, the cells were collected by trypsinization and centrifugation, washed with PBS and stained with CellEvent™ Caspase-3/7 Green ReadyProbes™ Reagent (Molecular Probes, Eugene, OR, USA) according to the manufacturer’s manual. Briefly, harvested cells were resuspended in 200 μL of PBS containing the reagent (1 drop/mL) and incubated for 30 min at room temperature. After that, flow cytometry analysis of the cells was performed using the NovoCyte Flow Cytometer. In total, 10,000 events were acquired for each sample.

U87 glioblastoma = assay: Subcutaneous U87 glioblastoma xenograft model; assay type: in vivo, Balb/C nude mice
Description: Given the high antitumor potential of 12 with respect to glioblastoma cells observed in vitro, we further questioned whether the investigated triterpenoid suppresses the growth of glioblastoma in a murine model. To understand this, 12 was intraperitoneally injected as a solution in 10% Tween-80 at a dosage of 20 mg/kg into nude mice bearing subcutaneously implanted human U87 glioblastomas (the experimental setup is presented in Figure 8A). […] Analysis of tumor weights also confirmed the high antitumor activity of 12, which decreased this parameter by 2.1- and 3.4-fold compared to the untreated and vehicle-treated groups, respectively (Figure 8D).
A xenograft model of tumor progression was induced by subcutaneous (s.c.) injection of U87 glioblastoma cells (2 × 10^7 cells/mL) suspended in 0.1 mL of saline buffer with 0.05 mL of Matrigel® Matrix (Corning, NY, USA) into the left flank of Balb/C nude mice. On day 5 after tumor transplantation, the mice were divided into three groups (n = 6 per group): (1) mice without treatment (control); (2) mice that received intraperitoneal (i.p.) injections of 10% Tween-80 (vehicle); and (3) mice that received i.p. injections of 12 in 10% Tween-80 at a dose of 20 mg/kg. The treatment was carried out thrice per week. The total number of injections was seven. During the experiment, the tumor volumes were determined three times a week using caliper measurements and were calculated as V= (D × d^2)/2, where D is the longest diameter of the tumor node and d is the shortest diameter of the tumor node perpendicular to D. The mice were sacrificed on day 21 after tumor transplantation and the tumors and brains were collected for subsequent histological and pharmacological analysis.
For the histological study, the tumor specimens were fixed in 10% neutral-buffered formalin (BioVitrum, St. Petersburg, Russia), dehydrated in ascending ethanols and xylols and embedded in HISTOMIX paraffin (BioVitrum, St. Petersburg, Russia). The paraffin sections (5 μm) were sliced on a Microm HM 355S microtome (Thermo Fisher Scientific, Waltham, MA, USA) and stained with hematoxylin and eosin. Extracellular matrix deposition was determined using Masson’s trichrome staining.
For the immunohistochemical study, the tumor sections (3–4 μm) were deparaffinized and rehydrated. Antigen retrieval was carried out after exposure in a microwave oven at 700 W. The samples were incubated with anti-Ki-67 (ab16667, Abcam, Boston, MA, USA), anti-α-SMA (ab5694, Abcam, USA) or anti-CD31 (ab182981, Abcam, USA) primary antibodies according to the manufacturer’s protocol. Then, the sections were incubated with secondary horseradish peroxidase (HPR)-conjugated antibodies, exposed to the 3,3′-diaminobenzidine (DAB) substrate (Rabbit Specific HRP/DAB (ABC) Detection IHC Kit, ab 64261, Abcam, USA) and stained with Mayer’s hematoxylin.
Morphometric analysis of tumor sections included evaluation of the numerical density (Nv) of mitoses and Ki-67-positive cells in a square unit of tumor tissue—3.2 × 10^6 μm^2 in this case. At least ten random fields from the tumor specimens of six mice in each group (60 testing fields in total) were studied.

[1] = 20 mg/kg i.p., seven injections
[2] = 20 mg/kg i.p., seven injections, day 21

CC1(C)C(=O)C(C#N)=C[C@]2(C)C3=CC(=O)[C@@H]4[C@@H]5C[C@@](C)(C(=O)NCCc6c[nH]c7ccccc67)CC[C@]5(C)CC[C@@]4(C)[C@]3(C)CC[C@@H]12 [compound 12]
percentage of U118 cells with collapsed ΔψM (U118 cells; 6 h): 7.5% | percentage of U118 cells with collapsed ΔψM (U118 cells; 24 h): 20.4% | JC-1 aggregate/monomer ratios (U118 cells; U118, 12 at 4 µM): significantly reduced | effect of NAC on cytotoxic effect of 12 (U87 cells): complete abrogation of the cytotoxic effect | activation of caspase-3 and -7 (caspase-3 and -7): effectively activated caspase-3 and -7 in a time-dependent manner | decrease in tumor weight compared to the untreated group (U87 glioblastoma; [1]): 2.1 fold | decrease in tumor weight compared to the vehicle-treated group (U87 glioblastoma; [1]): 3.4 fold | decrease in tumor volume compared to the control (U87 glioblastoma; [2]): 3 fold | decrease in tumor volume compared to the vehicle-treated group (U87 glioblastoma; [2]): 4.4 fold | decrease in numerical density of Ki-67-positive cells compared to the untreated control group (U87 glioblastoma; 20 mg/kg i.p., tumor tissue): 3.5 fold | decrease in numerical density of Ki-67-positive cells compared with vehicle-treated animals (U87 glioblastoma; 20 mg/kg i.p., tumor tissue): 2.4 fold | decrease in numerical density of mitotic cells (Nv) compared to the untreated control group (U87 glioblastoma; 20 mg/kg i.p., tumor tissue): 3.4 fold | decrease in numerical density of mitotic cells (Nv) compared with vehicle-treated animals (U87 glioblastoma; 20 mg/kg i.p., tumor tissue): 4 fold | collagen fiber content in tumor tissue (U87 glioblastoma; Masson's trichrome, versus untreated and vehicle-treated mice): decreased the collagen fiber content | expression of CD31 and α-SMA in tumor tissue (U87 glioblastoma; immunohistochemistry, versus control and vehicle-treated mice): increased the expression of both CD31 and α-SMA
